In patent US10285986B2, “Compounds and anti-tumor NQO1 substrates” (The Board of Trustees of the University of Illinois, priority 2011, dated 2019):
Values after ≈ are worked out from the molar mass of the structure shown. Read-outs that look alike come from different tables or passages of the source. Marks after values point to notes of the source that are not given here.

Columns and labels:
[1] = Aqueous solubility in pH 7.4 PBS by LC-MS; assay type: physicochemical; details: phosphate buffered saline, pH 7.4, aqueous buffer, thermodynamic from solid, PBS pH 7.4; Table 4.3
Method: The aqueous solubility of DNQ at pH 7.4 in phosphate buffered saline (PBS) was measured by LC-MS. DNQ was sonicated for 30 minutes in PBS then undissolved solid was removed by filtration through a 0.45 μm syringe filter and the filtrate was analyzed by LC-MS (λ=275 nm, ESI-TOF in negative mode). The optimal sonication time was determined by sonicating DNQ for 1, 5, 10, and 30 minutes. While the concentration of DNQ in solution increased substantially between 1, 5, and 10 minutes, there was only a minor difference between 10 and 30 minutes. During the 30 minute sonication the water bath warmed to 45° C. (samples were cooled to room temperature before filtration). A calibration curve was generated from 1-100 μM by dissolving DNQ in methanol to a concentration of 500 μM and making dilutions of this stock in 80:20 water:methanol. The calibration curve (measure by UV absorbance) was linear over this range; 1 μM was approximately the limit of detection. […] The solution was very pale yellow.
The aqueous solubility of the compounds was determined by an LC-MS assay as described in the specification above. We applied the calibration curve generated for DNQ to the derivatives under the assumption that the UV profile of the derivatives of DNQ would be similar to that of DNQ.
After sonication and filtration most of the aqueous solutions were colorless. The solutions of DNQ, 4-31, and 4-37 were faintly yellow while 4-8, 4-14 and 4-41 were substantially more colored. The solution of 4-8, 4-14 and 4-41 were diluted 10-fold with PBS prior to LC-MS analysis to ensure that the concentrations fell within the range of the calibration curve.

[2] = Solubility in organic solvents; assay type: physicochemical; details: for solubility: organic solvent or mixture, thermodynamic from solid
Method: The solubility of DNQ derivatives in organic solvents was determined by measuring the amount of a given solvent required to dissolve a known amount of compound. Solvent was added to the compound in 50 μL aliquots and the slurry was sonicated. […] Solubility was assessed in DMSO, dichloromethane, and 33% methanol in dichloromethane (FIGS. 9, 10, and 11, respectively).

MCF-7 cells = test: Cytotoxicity to MCF-7 cells with or without 25 μM dicoumarol (sulforhodamine B assay); assay type: cell-based, human
Method: The NQO1-dependent cytotoxicity of the first set of derivatives was determined in MCF-7 cells which express high levels of NQO1. Cells were exposed to DNQ for 2 hours in the presence or absence of 25 μM DIC. The media was then removed and cells were washed once with media then fresh media was added and the cells were incubated for 72 hours. Cell death was assessed using the sulforhodamine B assay previously described. […] Substitution off the nitrogen appeared well tolerated (4-14 and 4-15).
The DNQ derivatives synthesized were assayed for their toxicity to MCF-7 cells with or without DIC. The data from these experiments is organized in Table 4.2. […] This tolerance of sterically-demanding substituents corresponds with a flexible and promiscuous NQO1 active site. The poor activity of hydroxyl derivative 4-41 may be a result of either poor binding with the largely hydrophobic NQO1 active site or with an excessively strong substrate-enzyme interaction because of hydrogen bonding.

NQO1 = NQO1 (Homo sapiens, UniProt P15559); test: NQO1 enzymatic measurements in vitro; assay type: biochemical; details: 1 μM substrate
Chain of NQO1 (P15559 whole entry): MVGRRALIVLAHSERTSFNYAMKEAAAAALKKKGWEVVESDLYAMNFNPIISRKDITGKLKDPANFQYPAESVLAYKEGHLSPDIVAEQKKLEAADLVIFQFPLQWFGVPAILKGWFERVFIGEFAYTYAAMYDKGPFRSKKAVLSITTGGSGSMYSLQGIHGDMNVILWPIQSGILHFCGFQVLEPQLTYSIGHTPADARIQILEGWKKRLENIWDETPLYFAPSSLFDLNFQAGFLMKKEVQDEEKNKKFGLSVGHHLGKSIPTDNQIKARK
Method: As further evidence that the activity of these DNQ derivatives is dependent on their ability to be reduced by NQO1, full enzymatic measurements in vitro were performed. We found a strong correlation between catalytic efficiency of substrates in vitro and their cell culture toxicity. […] This provides strong evidence that the cytotoxicity of DNQ and its derivatives are dependent primarily upon the activity of NQO1 within the cell.

[3] = Solubility in organic solvents; assay type: physicochemical; details: organic solvent or mixture, thermodynamic from solid; THF; Table 1
[4] = 2:1 CH2Cl2:MeOH, Table 4.3, read-out: Solubility in 2:1 CH2Cl2:MeOH
[5] = CH2Cl2:MeOH 2:1, Table 1, read-out: CH2Cl2:MeOH 2:1 solubility
[6] = CH2Cl2, Table 1, read-out: CH2Cl2 solubility
[7] = DMSO, Table 1, read-out: DMSO solubility
[8] = Homo sapiens, MCF7, Table 1, read-out: MCF7 IC50
[9] = Homo sapiens, MCF7, Table 4.2, no DIC, ± s.e., read-out: IC50 vs. MCF-7 cells
[10] = Homo sapiens, MCF7, classification in figure legends of FIGS. 7-11, read-out: IC50 ("active" / generally "inactive" compounds)
[11] = Homo sapiens, MCF7, read-out: IC50 vs. MCF-7 cells +25 μM DIC, Table 4.2, +25 μM DIC, ± s.e.
[12] = Homo sapiens, MCF7, 2 h, Table 4.1, 2 h exposure, no DIC, ± s.e., read-out: IC50 vs. MCF-7 cells
[13] = Homo sapiens, MCF7, read-out: IC50 vs. MCF-7 cells +25 μM DIC, Table 4.1, +25 μM DIC, ± s.e.

Row | Structure (SMILES) | solubility at 30 min [1] [mM] | Solubility in CH2Cl2 ([2]; CH2Cl2, Table 4.3) [mM] | Solubility in DMSO ([2]; DMSO, Table 4.3) [mM] | solubility [2, 4] [mM] | solubility [2, 5] [mM] | solubility [2, 6] [mM] | solubility [2, 7] [mM] | NQO1 Initial Velocity @ 1 μM (NQO1) | solubility [3] [mM] | IC50 (MCF-7 cells; [8]) [µM] | IC50 (MCF-7 cells; [9]) [µM] | IC50 (MCF-7 cells; [10]) [µM] | IC50 (MCF-7 cells; [11]) [µM] | Fold Protection of MCF7 cells w/ 25 μM dicoumarol (MCF-7 cells; Table 1) | Fold protection by DIC (MCF-7 cells; Table 4.2) | also measured
1 | CCCCn1c2c(c(C)cc1=O)C(=O)c1c(CCC)cc(=O)[nH]c1C2=O [Compound 4-27] | < 0.005 | 17 (≈ 6020 µg/mL) | 10 (≈ 3540 µg/mL) | 49 (≈ 17400 µg/mL) | 49 (≈ 17400 µg/mL) | 17 (≈ 6020 µg/mL) | 10 (≈ 3540 µg/mL) | 350 ± 10 | 12 (≈ 4250 µg/mL) | 6.3 | 6.3 ± 1.1 | > 0.5 | 6.8 ± 1.6 | 1.1 | 1.1 | 
2 | CCCCn1c2c(c(CCC)cc1=O)C(=O)c1c(CCC)cc(=O)[nH]c1C2=O [Compound 4-28] | < 0.005 | 35 (≈ 13400 µg/mL) | 7.1 (≈ 2720 µg/mL) | 64 (≈ 24500 µg/mL) | 64 (≈ 24500 µg/mL) | 35 (≈ 13400 µg/mL) | 7.1 (≈ 2720 µg/mL) | 75 ± 4 | 17 (≈ 6500 µg/mL) | 36 | 36 ± 11 | > 0.5 | 31 ± 10 | 0.9 | 0.9 | 
3 | CCc1cc(=O)[nH]c2c1C(=O)c1c(C)cc(=O)n(C)c1C2=O [Compound 4-11] | 0.105 (≈ 31.3 µg/mL) | 11 (≈ 3280 µg/mL) | 16 (≈ 4770 µg/mL) | 35 (≈ 10400 µg/mL) | 35 (≈ 10400 µg/mL) | 11 (≈ 3280 µg/mL) | 16 (≈ 4770 µg/mL) |  | 3.9 (≈ 1160 µg/mL) |  |  | > 0.5 |  |  |  | IC50 (MCF-7 cells; [12]): 0.55 ± 0.06 µM; IC50 (MCF-7 cells; [13]): 4.9 ± 0.8 µM; Fold protection by DIC (MCF-7 cells; Table 4.1): 8.9
4 | CCCc1cc(=O)n(C)c2c1C(=O)c1c(C)cc(=O)[nH]c1C2=O [Compound 4-9] | 0.059 (≈ 18.4 µg/mL) | 6.1 (≈ 1910 µg/mL) | 10 (≈ 3120 µg/mL) | 18 (≈ 5620 µg/mL) | 18 (≈ 5620 µg/mL) | 6.1 (≈ 1910 µg/mL) | 10 (≈ 3120 µg/mL) | 600 ± 100 | 4.6 (≈ 1440 µg/mL) | 0.93 |  | > 0.5 |  | 2.8 |  | IC50 (MCF-7 cells; [12]): 0.9 ± 0.25 µM; IC50 (MCF-7 cells; [13]): 2.6 ± 0.6 µM; Fold protection by DIC (MCF-7 cells; Table 4.1): 2.8
5 | CCCc1cc(=O)[nH]c2c1C(=O)c1c(C)cc(=O)n(C)c1C2=O [Compound 4-12] | 0.035 (≈ 10.9 µg/mL) | 2.0 (≈ 625 µg/mL) | 4.2 (≈ 1310 µg/mL) | 10 (≈ 3120 µg/mL) | 10 (≈ 3120 µg/mL) | 2 (≈ 625 µg/mL) | 4.2 (≈ 1310 µg/mL) | 250* |  | 3.4 |  | > 0.5 |  | 1.6 |  | IC50 (MCF-7 cells; [12]): 3.4 ± 0.6 µM; IC50 (MCF-7 cells; [13]): 5.3 ± 1.2 µM; Fold protection by DIC (MCF-7 cells; Table 4.1): 1.6
6 | Cc1cc(=O)[nH]c2c1C(=O)c1c(C)cc(=O)[nH]c1C2=O [Compound 2-78, reference compound] |  |  |  |  |  |  |  |  |  |  |  |  |  |  |  | solubility in solvents evaluated [2]: insoluble in all solvents evaluated except concentrated acids or bases
7 | CCCCn1c2c(c(CCC)cc1=O)C(=O)c1c(C)cc(=O)[nH]c1C2=O [Compound 4-26] | < 0.005 | 24 (≈ 8510 µg/mL) | 14 (≈ 4960 µg/mL) | 75 (≈ 26600 µg/mL) | 75 (≈ 26600 µg/mL) | 24 (≈ 8510 µg/mL) | 14 (≈ 4960 µg/mL) | 1300 ± 200 | 17 (≈ 6020 µg/mL) | 0.77 | 0.77 ± 0.19 | > 0.5 | 2.2 ± 0.6 | 2.8 | 2.8 | 
8 | CC1=C(N2CC2)C(=O)C(CO)=C(N2CC2)C1=O [RH1, reference compound] |  |  |  |  |  |  |  |  |  |  |  |  |  | 0.85 |  | IC50 (MCF-7 cells; Table 1, read-out: MCF7 IC50): 0.21 µM
9 | CO[C@@]12[C@H](COC(N)=O)C3=C(C(=O)C(C)=C(N)C3=O)N1C[C@@H]1N[C@@H]12 [MMC, mitomycin C, reference compound] |  |  |  |  |  |  |  |  |  |  |  |  |  | 1 |  | IC50 (MCF-7 cells; Table 1, read-out: MCF7 IC50): 14 µM

Second part, led by results:

Row | solubility at 30 min [1] [mM] | Solubility in CH2Cl2 ([2]; CH2Cl2, Table 4.3) [mM] | Solubility in DMSO ([2]; DMSO, Table 4.3) [mM] | solubility [2, 4] [mM] | solubility [2, 5] [mM] | solubility [2, 6] [mM] | solubility [2, 7] [mM] | NQO1 Initial Velocity @ 1 μM (NQO1) | solubility [3] [mM] | Structure (SMILES) | IC50 (MCF-7 cells; [8]) [µM] | IC50 (MCF-7 cells; [9]) [µM] | IC50 (MCF-7 cells; [10]) [µM] | IC50 (MCF-7 cells; [11]) [µM] | Fold Protection of MCF7 cells w/ 25 μM dicoumarol (MCF-7 cells; Table 1) | Fold protection by DIC (MCF-7 cells; Table 4.2) | also measured
10 | 0.024 (≈ 9.13 µg/mL) |  |  | 46 (≈ 17500 µg/mL) |  |  |  |  |  | Cc1cc(=O)[nH]c2c1C(=O)c1c(C)cc(=O)n(C3CCCCCCC3)c1C2=O [Compound 4-39] |  | 0.83 ± 0.07 | > 0.5 | 4.1 ± 0.8 |  | 3.8 | solubility ([2]; CH2Cl2, Table 4.3, read-out: Solubility in CH2Cl2): 120 mM (≈ 45700 µg/mL); solubility ([2]; DMSO, Table 4.3, read-out: Solubility in DMSO): 71 mM (≈ 27000 µg/mL)
11 | 0.084 (≈ 26.2 µg/mL) | 10 (≈ 3120 µg/mL) | 21 (≈ 6560 µg/mL) | 46 (≈ 14400 µg/mL) | 46 (≈ 14400 µg/mL) | 10 (≈ 3120 µg/mL) | 21 (≈ 6560 µg/mL) | 250 ± 20 | 6.2 (≈ 1940 µg/mL) | CCc1cc(=O)[nH]c2c1C(=O)c1c(CC)cc(=O)n(C)c1C2=O [Compound 4-29] | 5 | 3.8 ± 1.2 | > 0.5 | 4.8 ± 1.1 | 1.2 | 1.3 | 
12 | 0.485 (≈ 159 µg/mL) | 0.3 (≈ 98.5 µg/mL) | 24 (≈ 7880 µg/mL) | 11 (≈ 3610 µg/mL) | 11 (≈ 3610 µg/mL) | 0.3 (≈ 98.5 µg/mL) | 24 (≈ 7880 µg/mL) | 1600 ± 200 | 0.67 (≈ 220 µg/mL) | Cc1cc(=O)[nH]c2c1C(=O)c1c(C)cc(=O)n(CCCO)c1C2=O [Compound 9-281] | 0.79 ± 0.1 | 0.68 ± 0.15 | > 0.5 | 3.4 ± 0.6 | 4 | 5.0 | 
13 |  |  |  |  | 60 (≈ 17900 µg/mL) | 25 (≈ 7460 µg/mL) | 15 (≈ 4470 µg/mL) | 32 ± 2 | 3.7 (≈ 1100 µg/mL) | Cc1cc(=O)n(C)c2c1C(=O)c1c(C)cc(=O)n(C)c1C2=O [SCH, reference compound] | 3.9 |  |  |  | 3.5 |  | 
